Patent US8431578B2, “Organic compounds” (Novartis AG, priority 2008, dated 2013)
Blank lines part the entries; values can stand above or below the molecule they belong to.

Tests used:
[1] = target: T1, ALK5 T204D (kinase domain of human ALK5, amino acids 200-503) (Homo sapiens, UniProt P36897, T204D); assay: ALK5 kinase activity, [33P] phosphate incorporation into casein; type: biochemical; settings: casein substrate, 1 μM unlabelled ATP
T1 construct: The kinase domain of human ALK5 (amino acids 200-503); made in house; host or cells: insect cells (baculovirus expression)
T1 sequence (P36897 200-503 T204D): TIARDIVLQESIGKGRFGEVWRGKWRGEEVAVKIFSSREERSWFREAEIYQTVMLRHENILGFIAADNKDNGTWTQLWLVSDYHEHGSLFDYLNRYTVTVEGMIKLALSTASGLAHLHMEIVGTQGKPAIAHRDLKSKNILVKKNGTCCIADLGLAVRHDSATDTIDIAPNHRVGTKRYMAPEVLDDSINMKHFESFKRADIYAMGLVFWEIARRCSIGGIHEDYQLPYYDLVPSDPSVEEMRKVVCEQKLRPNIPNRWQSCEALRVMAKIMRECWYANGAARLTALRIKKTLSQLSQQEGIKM
Experimental: The kinase activity of ALK5 is assessed by measuring radiolabelled phosphate [33P] incorporation in to the generic substrate, casein. The kinase domain of human ALK5 (amino acids 200-503) is fused to an N-terminal histidine tag. The kinase activity of ALK5 is rendered constitutive via point mutation at amino acid 204 (threonine to aspartate modification, ALK5 T204D) and the kinase construct is engineered to be expressed from a baculovirus expression construct in insect cells. The purified, recombinantly-expressed histidine-tagged ALK5 T204D protein is dissolved at 5.4 mg/ml in 50 mM Tris-HCl pH 8.0, 150 mM NaCl, 5 mM DTT. ALK5 T204D is dissolved to 2.5 μg/ml in assay buffer (Assay buffer: 20 mM Tris-HCl pH 7.4, 10 mM MgCl2, 2 mM MnCl2) on the day of use.
Test compounds and reference compounds are dissolved in assay buffer without DTT containing 5% (v/v) DMSO. Stock solutions of test and reference compounds are diluted in assay buffer with DTT (1.25 mM) containing 4.5% (v/v) DMSO. 10 μl of test or reference compound are added to the appropriate wells of 96 well U-bottomed plate. Total enzyme activity is determined by measuring ALK5 T204D activity in the absence of ALK5 kinase inhibitor reference compounds. Non-specific binding (NSB) is determined by measuring the activity of ALK5 T204D in the presence of ALK5 kinase inhibitor reference compounds. 10 μl of dephosphorylated casein stock solution (dephosphorylated casein is dissolved in ddH2O at 20 mg/ml) is added per well (200 μg/well final assay concentration). 20 μl of ALK5 T204D (2.5 μg/ml solution) is added per well (50 ng/well final assay concentration). The plates are left to incubate at room temperature for 10 minutes.
10 μl of ATP mix is added to the well to initiate the reaction (0.66 nM [^33P]ATP/1 μM unlabelled ATP/well final assay concentration). The ATP mix is prepared as follows, unlabelled ATP (3 mM) is dissolved in ddH2O and pH adjusted to 7.4. The stock concentration of [^33P]ATP is 10 μCi/μl. The appropriate volume of [^33P]ATP is added to unlabelled ATP solution such that the final assay concentration per well is 0.1 μCi. Following addition of the ATP mix, the plates are incubated at room temperature for 50 minutes. The kinase reaction is terminated by the addition of 50 μL Stop Buffer (20 mM Tris-HCl pH 7.4, 10 mM EDTA).
75 μl/well from the reaction plate is transferred to a Multiscreen-IP plate (MultiScreen-IP plates are prepared by added 50 μL of 70% (v/v) ethanol per well and incubated for 5 minutes at room temperature. The ethanol is removed by aspiration via a MultiScreen HTS Vaccum Manifold unit (Millipore, Cat no: MSVMHT500). The plates are washed twice by adding 200 μl/well ddH2O). The MultiScreen-IP plate is incubated at room temperature for 30 minutes to allowing binding of casein to the plate. The MultiScreen-IP plates are washed three times by adding 200 μl/well 100 mM phosphoric acid solution and the gasket is carefully removed from the back of the MultiScreen-IP plate and the plate dried in the oven for 30 minutes. The MultiScreen-IP plate is backsealed, 50 μL of Microscint™20 is added, then the plates are topsealed and radiolabelled casein detected and quantified on a TopCount™ plate-reader using the ^33P scintillation protocol.

[2] = tested on: dimethylnitrosamine induced liver fibrosis; settings: rat, cited from earlier work
[3] = tested on: bleomycin-induced pulmonary fibrosis; settings: bleomycin-treated rats; cited from earlier work
[4] = dimethylnitrosamine induced liver fibrosis, given therapeutically

IC50 [1]: 335 nM
Molecule: CC(C)N1CCN(C(=O)c2ccc(-c3cncc(-c4cc(Cl)nc(-c5ccccn5)n4)c3)cc2)CC1 [Example 1, {4-[5-(6-Chloro-2-pyridin-2-yl-pyrimidin-4-yl)-pyridin-3-yl]-phenyl}-(4-isopropyl-piperazin-1-yl)-methanone]

IC50 [1]: 24 nM
Molecule: CC(C)N1CCN(C(=O)c2ccc(-c3cncc(-c4cc(OCc5ccccc5)nc(-c5ccccn5)n4)c3)cc2)CC1 [Example 11, {4-[5-(6-Benzyloxy-2-pyridin-2-yl-pyrimidin-4-yl)-pyridin-3-yl]-phenyl}-(4-isopropyl-piperazin-1-yl)-methanone]

IC50 [1]: 592 nM
Molecule: CC(C)N1CCN(C(=O)c2ccc(-c3cncc(-c4ccnc(-c5ccccn5)n4)c3)cc2)CC1 [Example 3, (4-Isopropyl-piperazin-1-yl)-{4-[5-(2-pyridin-2-yl-pyrimidin-4-yl)-pyridin-3-yl]-phenyl}-methanone]

IC50 [1]: 265 nM
Molecule: Cc1cccc(-c2nc(OCc3ccccc3)cc(-c3cncc(-c4ccc(C(=O)N5CCN(C(C)C)CC5)cc4)c3)n2)n1 [Example 8, (4-{5-[6-Benzyloxy-2-(6-methyl-pyridin-2-yl)-pyrimidin-4-yl]-pyridin-3-yl}-phenyl)-(4-isopropyl-piperazin-1-yl)-methanone]

Further lines, the molecule ahead of its results:

Molecule: Cc1cccc(-c2nc(OCCc3c[nH]c4ccccc34)cc(-c3cccnc3)n2)n1 [Example 6, 3-{2-[2-(6-Methyl-pyridin-2-yl)-6-pyridin-3-yl-pyrimidin-4-yloxy]-ethyl}-1H-indole]
IC50 [1]: 261 nM

Molecule: c1ccc(-c2cc(-c3cn[nH]c3-c3ccccn3)ccn2)cc1 [GW6604]
inhibition of extracellular matrix deposition [2, 4]: 60%
prevention of the death rate [2, 4]: 40%
side effects ([2]; during the 3 weeks treatment): no obvious side effects

B1: Follistatin: an antagonist of activin signalling (protein, UniProt P19883 30-344, looked up)
Follistatin: GNCWLRQAKNGRCQVLYKTELSKEECCSTGRLSTSWTEEDVNDNTLFKWMIFNGGAPNCIPCKETCENVDCGPGKKCRMNKKNKPRCVCAPDCSNITWKGPVCGLDGKTYRNECALLKARCKEQPELEVQYQGRCKKTCRDVFCPGSSTCVVDQTNNAYCVTCNRICPEPASSEQYLCGNDGVTYSSACHLRKATCLLGRSIGLAYEGKCIKAKSCEDIQCTGGKKCLWDFKVGRGRCSLCDELCPDSKSDEPVCASDNATYASECAMKEAACSSGVLLEVKHSGSCNSISEDTEEEEEDEDQDYSFPISSILEW
effect on lung fibrosis [3]: attenuated lung fibrosis
